Laboratory results published in a melting point compilation (Tetko et al.; mined from patent text by program, amines drawn as free bases though some values may be those of a salt).

melting point [°C] | Structure (SMILES)
200 to 202 | CCOCc1nc2c(N)nc3cc(OCc4nccn4C)ccc3c2n1CC(C)(C)O
81 to 82 | CCOC(=O)CC[C@H](NC(=O)c1cc(CCCc2cc3c(=O)[nH]c(N)nc3[nH]2)cs1)C(=O)OCC
112 to 114 | CC(=O)C(=NNc1cccc(C)c1)Sc1ccc(Cl)cc1
139 to 142 | Cc1cncc(CNC(=O)c2sc(N3CCN(CC(C)C)C3=O)nc2C)n1
148 to 149 | NC(=O)C1=NN(c2cccc(COCC3CCCCC3)c2)C(c2ccccc2F)N1 (stereo not drawn)
125 to 140 | N=C(NCc1ccccn1)NN=Cc1c(Cl)cccc1Cl
65 to 67 | CCCCc1cc(C=CC(=O)OC)c[nH]1
189 to 190 | Cn1nc(-c2sc(C(=O)NCc3ccccn3)nc2-c2ccccc2)ccc1=O
189 to 191 | COc1ccc(S(C)(=O)=O)cc1C(=O)O
81 to 82 | Cc1ccc2c(c1)nnn2C(=O)N1CCOCC1
184 to 185 | CC1=C(C(=O)OC(C)(C)C)C(c2ccccc2I)C(C(=O)OC(C)(C)C)=C(C)N1
70 to 72 | O=C(C(=O)c1ccc(C(F)(F)F)cc1)c1ccncc1
151 | O=Cc1cccc(-c2cnco2)n1
66 to 68 | CCC(CC)(CO)CS(N)(=O)=O
244 to 246 | Oc1ccc(Nc2nc(NCc3ccco3)nc(-n3ccnc3)n2)cc1
184 to 185 | O=c1nc(-c2ccccc2)c2cc(Cl)ccc2n1CC(F)(F)F
94 to 97.5 | ClCCCCOc1ccc(C2c3ccc(OCc4ccccc4)cc3OCC2c2ccccc2)cc1 (stereo not drawn)
193 to 195 | O=C(CCC(F)(F)F)Oc1cc(=O)n(-c2ccccc2)c2ncccc12
158 to 160 | CC#CCn1c(Oc2cc(C)cc(C)c2)c(C(C)C)c(=O)[nH]c1=O
196 to 198 | O=C(O)C1=Cc2cc(Cl)cc(-c3ccccc3)c2OC1C(F)(F)F (stereo not drawn)
265 | O=C(O)CNC(=O)c1nc(Cl)c2cc(Cl)c(Cl)cc2c1O
198 to 200 | O=C1N(Cc2ccccn2)c2ccccc2C12COc1cc3c(cc12)OCC3 (stereo not drawn)
121 to 123 | COC(=O)NS(=O)(=O)c1cccc([N+](=O)[O-])c1

melting point [°C] | Structure (SMILES)
149 to 151 | Cc1nc(N2CCN(Cc3ccc(OC(F)(F)F)cc3)C2=O)sc1C(=O)NC[C@H](O)c1ccccc1
124 to 125 | O=c1cc(-c2ccccc2)oc2ccc(OCCCCN3CCC(O)CC3)cc12
166 to 168 | Nc1ccc(C#Cc2ccc(C#Cc3ccccc3)cc2[N+](=O)[O-])cc1
213 to 214 | Cc1cc(OCC(O)CNC(C)(C)C)c2cc(C(N)=O)[nH]c2c1 (stereo not drawn)
145 to 146 | CCC1(CCCCN2CCN(c3ccc(Cl)cc3)CC2)C(=O)Nc2ccccc21 (stereo not drawn)
183 to 185 | Nc1ccc(CS(=O)(=O)CCO)cc1CS(=O)(=O)CCO
240 to 255 | Cc1nc2c(/C=C/c3ccccc3)cccn2c1C
196 to 198 | CCCc1nc2c(N)nc3ccccc3c2n1CC(C)(C)CC(C)=NOC
191 to 193 | N#Cc1ccc2c(c1)ncn2-c1cccc(-c2cccnc2)c1
193 to 194 | CC(C)CC(NC(=O)c1ccc(Cl)cc1)NC(=NC#N)Nc1cccnc1 (stereo not drawn)
75 to 77 | COc1cccc(CN2CC=C(/C=C/c3ccccc3)CC2)c1
116 to 117 | COc1cc2nc(SCc3cc(N(C)C)c(Cl)cn3)[nH]c2cc1OC
210 to 212 | Cc1cccc(/C=C/C2=CCN(Cc3c[nH]c4ncccc34)CC2)c1
127 to 129 | Brc1cc(C=Cc2scc3c2OCCO3)ccn1
117 to 119 | O=C(CBr)c1ccc(O)c(CO)c1
127 to 129 | Cc1cc(CNc2cccc3c2C(=O)N(C2CCC(=O)NC2=O)C3=O)oc1C (stereo not drawn)
126 to 128 | COC(=O)C=Cc1cnc(C(=O)OC)cc1C(=O)OC
70 to 71 | CC(CN(C(C)C)C(C)C)N1C(=O)C(=O)c2ccccc21 (stereo not drawn)
110 to 111 | O=CN1CCN(c2ccc3cc(F)ccc3n2)CC1
133 to 135 | C=Cc1cc(CNC(=O)OC(C)(C)C)cc(Cl)c1NS(C)(=O)=O
147 to 149 | CN1C(=O)CCC1(O)c1ccc(Cl)c(S(N)(=O)=O)c1 (stereo not drawn)
169 to 170 | CCCCCCN(Cc1ccccn1)C(Nc1cc(C(C)(C)C)c(O)c(C(C)(C)C)c1)=C1C(=O)OC(C)(C)OC1=O
204 | CCOC(=O)N1CCC(NC2(c3ccccc3Cl)C(=O)Nc3ccc(Cl)cc32)CC1 (stereo not drawn)

melting point [°C] | Structure (SMILES)
119 | N#CCC(=O)NCc1ccc(Cl)nc1
96 to 98 | CCC(CC)Oc1cc(C)nc(Oc2c(C)cc(C)cc2C)c1N
244 to 246 | Cc1cc(-c2nnc3c4ccccc4c(OCc4ccncc4)nn23)no1
173 to 175 | O=C(O)COc1c(-c2cccc(Cl)c2)cc(C(=O)NCCCC2CCCC2)cc1-c1cccc(C(F)(F)F)c1
138 to 139 | CCCCOc1c(C(OC(N)=O)C(C)(C)C)n(CC(C)(C)C)c(=O)c2ccc(OCC)cc12 (stereo not drawn)
154 to 155 | CCN1c2ncccc2C(OS(C)(=O)=O)Nc2c(C)cc(C)nc21 (stereo not drawn)
190 to 193 | O=C1c2ccccc2C2(c3ccccc3)N1CCS2(=O)=O (stereo not drawn)
113 | N#CCCOC(=O)NC(=O)C(c1ccccc1)c1ccccc1
153 to 154 | CN1CCNC(=O)C1c1ccc(N)cc1 (stereo not drawn)
128 | CCCCCCC(C(=O)O)n1cnc(NC(=O)C2(O)c3ccccc3-c3ccccc32)c1 (stereo not drawn)
142 to 143 | CCOC(=O)c1cn(-c2nccs2)cn1
167 to 168 | CCOC(=O)c1cc(O)c(C(=O)c2ccccc2)c([N+](=O)[O-])c1
149 to 151 | COc1ccc(-c2nnn(-c3ccc(Cl)cc3Cl)c2N)cc1
91 to 95 | Cn1c(Cl)cnc1CN1C(=O)C2(COc3cc4c(cc32)OCCO4)c2ccccc21 (stereo not drawn)
117 to 118 | FC(F)(F)c1cccc(CCc2nnc(-c3ccc4ncoc4c3)o2)c1
83 | COc1cccc(OC(=O)/C=C/c2ccc(C(C)(C)C)cc2)c1
219 to 222 | CCOC(=O)c1cnc2c(c1O)CCCCCC2
127 | CC(C)(C)OC(=O)N1CCN(S(=O)(=O)c2ccc(Br)s2)CC1
248 | O=c1[nH]c2ccccc2n1CCCN1CCC(n2c(=S)[nH]c3ccccc32)CC1
183 to 184 | COC(=O)Cc1ccc(N[C@@H](CCC(N)=O)C(=O)O)cc1
99 to 100 | NC(=O)CCN1CC(O)CC1=O (stereo not drawn)
156 to 157 | CCc1[nH]nc(C(=O)NC2CCCC2)c1[N+](=O)[O-]
124 to 126 | CC(=O)OCCN(C)Cc1cc(C(=O)c2cccs2)cc(C(C)(C)C)c1O

Structure (SMILES) | melting point [°C]
CC(C)(C)NCC(O)c1cc(F)cc(C#N)c1F (stereo not drawn) | 99 to 101
N#Cc1ncn2c1[C@@H]1CCCN1C(=O)c1c(Br)cccc1-2 | 253 to 254
Cc1nnc2n1-c1ccc(C#CCOc3ccccc3)cc1C(c1ccccc1Cl)=NC2 | 160 to 162
O=C(Nc1cccc([N+](=O)[O-])c1)NC1N=C(c2ccccc2F)c2ccccc2N(CC(=O)N2CC3CCC(CC3)C2)C1=O (racemic) | 180 to 187
